Experimental findings from patent publication US7429482B2, “Screening tools for discovery of novel anabolic agents” (United States of America as represented by the Department …, priority 2005, dated 2008) are described below.

SMILES strings stand for the structures.

In data set [1] the test system is junB. Nature of the data set: Chronic denervation: junB mRNA in gastrocnemius (qPCR). It is filed as in vivo, rat. On the procedure:
(§1) Male Wistar rats weighing 200-250 gm (Taconic Farms, Germantown, N.Y.) were provided food and water ad libitum and were housed in a temperature and humidity controlled environment providing a 12:12 hour day-night cycle. For surgical procedures, animals were anesthetized with ketamine/xylazine. The left sciatic nerve was exposed by blunt dissection, and a 1 to 2 mm piece of this nerve was excised just below the level of the femoral head. A sham surgery was performed on the right hind limb in which the sciatic nerve was exposed but was not transected. Twenty eight days later, animals were anesthetized, and Alzet pumps were implanted subcutaneously on the back. […] Testosterone levels after replacement were approximately 15 nM, a high-normal range for rats of this age. […]
(§2) Total RNA was extracted from skeletal muscle (20 mg) by homogenization in guanidine thiocyanate using a Polytron followed by extraction of total RNA with phenol-chloroform as described by (Chomczynski and Sacchi, Anal Biochem 162: 156-159, 1987). […] Total RNA was eluted and quantified by absorbance at 260 nm. […] Levels of gene expression in the denervated muscle were expressed as fold induction relative to muscle from the sham-denervated leg of animals administered vehicle. […] Fold-induction was determined using the 2^−ΔΔCt method, using expression of 18S RNA as the normalization control. […]
In general terms: Real-time PCR tracks product formation cycle by cycle.

Data set [2] in a line: Chronic denervation: gastrocnemius muscle weights. The class given is in vivo, rat. On the procedure: (§3) Male Wistar rats weighing 200-250 gm (Taconic Farms, Germantown, N.Y.) were provided food and water ad libitum and were housed in a temperature and humidity controlled environment providing a 12:12 hour day-night cycle. For surgical procedures, animals were anesthetized with ketamine/xylazine. The left sciatic nerve was exposed by blunt dissection, and a 1 to 2 mm piece of this nerve was excised just below the level of the femoral head. A sham surgery was performed on the right hind limb in which the sciatic nerve was exposed but was not transected. Twenty eight days later, animals were anesthetized, and Alzet pumps were implanted subcutaneously on the back. […] Testosterone levels after replacement were approximately 15 nM, a high-normal range for rats of this age. Animals were sacrificed 3, 7 or 28 days after implantation of the miniosmotic pumps by inhalation of carbon dioxide. Gastrocnemius muscles were excised and weighed, then flash frozen on dry ice and stored at −80° C.

Data set [3] relates to IGFBP-4. Nature of the data set: Chronic denervation: IGFBP-4 mRNA in gastrocnemius (qPCR). The class given is in vivo, rat. The procedure: as §1, §2
Data set [4] relates to IGFBP-3. Nature of the data set: Chronic denervation: IGFBP-3 mRNA in gastrocnemius (qPCR). It is filed as in vivo, rat. On the procedure:
as §1, §2

The test system of data set [5] is IGF-1 receptor. Nature of the data set: Chronic denervation: IGF receptor mRNA in gastrocnemius (qPCR). It is filed as in vivo, rat. As to conditions: for IGF-receptor expression: denervated muscle. The procedure:
as §3
Total RNA was extracted from skeletal muscle (20 mg) by homogenization in guanidine thiocyanate using a Polytron followed by extraction of total RNA with phenol-chloroform as described by (Chomczynski and Sacchi, Anal Biochem 162: 156-159, 1987). Total RNA was further enriched using RNAeasy minicolumns (Qiagen, Valencia, Calif.). This procedure included digestion of contaminating DNA on the column with RNAse-free DNAse (Qiagen). Total RNA was eluted and quantified by absorbance at 260 nm. One μg of total RNA was used to prepare a cDNA library by reverse transcription (High Capacity cDNA Archive Kit, Applied Biosystems). Libraries were diluted 25-fold with water. Real time PCR was performed Taqman 2×PCR buffer (Applied Biosystems) using an Applied Biosystems 7500 thermocycler. Levels of gene expression in the denervated muscle were expressed as fold induction relative to muscle from the sham-denervated leg of animals administered vehicle. […] Fold-induction was determined using the 2^−ΔΔCt method, using expression of 18S RNA as the normalization control. […]

Data set [6] is described as follows: Testosterone levels after replacement in rats. It is filed as in vivo. Conditions: rat, testosterone 0.7 mg/day continuous infusion. On the procedure:
as §3

The test system of data set [7] is starved, cultured muscle cells. Nature of the data set: Muscle breakdown in starved, cultured muscle cells. The class given is cell-based.
Data set [8] concerns ARE reporter gene (MMTV hormone response element). Nature of the data set: ARE (MMTV hormone response element) luciferase reporter in C2C12 and C2C12.AR cells. The class given is cell-based. From the text:
The reporter genes pMAF3.1, pMAF2.4, pMAF948, pMAF400, and pMAF400-241 express firefly luciferase under the control of promoter regions of the human MAFbx gene and are described in Example 1. The rARC562G vector, encoding rat AR with a C562->G mutation in the first zinc binding module that disrupts binding of AR to DNA was described by Palvimo et al. (Mol Endocrinol 7: 1399-1407, 1993) pAR.4RKM (expressing AR with 4 R/K->M mutations in the nuclear localization sequence that is unable to enter the nucleus) and pAR.ABC (lacking the ligand binding domain) were described by Zhou et al. (J Biol Chem 269: 13115-13123, 1994). The pBabe.puro retroviral backbone described by Morgenstern and Land (Nucleic Acids Res 18: 3587-3596, 1990) was modified by introduction of a Not1 site. […]
Cells were seeded into wells of 24-well plates (5×10^5 cells/well) then maintained overnight in DMEM with 10% CDS-FBS. […] Cells were maintained for an additional 24 hours, at which time both firefly and renilla luciferase activity were determined using the Dual Luciferase Assay (Promega, Madison, Wis.) and a Berthold 96-well plate luminometer. […]
To determine whether C2C12 cells expressed AR, total RNA from these cells was extracted and analyzed by real-time PCR and compared to levels of AR mRNA in gastrocnemius muscle from male mice. […]
(In general: In a reporter assay the amount or activity of a reporter protein is the signal.)

As for `C[C@]12CC[C@H]3[C@@H](CCC4=CC(=O)CC[C@@H]43)[C@@H]1CC[C@@H]2O` [nandrolone], the junB expression result in data set [1] (denervated muscle, 3 to 28 days after starting infusion) is recorded as “tended to reduce”; in data set [1] (sham-denervated muscle) it was “no effect”. Also, the “weights of denervated muscles versus vehicle” value in data set [2] (after 3 days of nandrolone (31 days)) is listed as “similar”. For the same compound, the “increase in mass of muscles in the normal limb” value in data set [2] (nandrolone 0.75 mg/kg/wk plus testosterone from day 28, not significant) was 2-5%. Also, the IGFBP-4 expression result was “did not significantly alter” in data set [3] (denervated muscle, any time tested) and “did not appreciably alter” in data set [3] (sham-denervated muscle). In addition, in data set [4] (denervated muscle, 56-days), the IGF-BP-3 expression result is recorded as “significantly reduced”. Besides, in data set [4] (sham-denervated muscle), the IGFBP-3 expression entry was “did not appreciably alter”. In addition, the IGF-receptor expression entry in data set [5] (after 28 days (p<0.10)) is “trend toward increased expression”; in data set [5] (early time points), “did not alter”. The IGF-1 receptor expression result in data set [5] (sham-denervated muscle) is given as “not altered”.
As to `C[C@]12CC[C@H]3[C@@H](CCC4=CC(=O)CC[C@@]43C)[C@@H]1CC[C@@H]2O` [testosterone], in data set [6], the “testosterone levels after replacement” value is reported as “approximately 15 nM”. Besides, in data set [7], the muscle breakdown entry was “reduced”. For the same compound, the “luciferase expression by ARE-Luc reporter” value in data set [8] (C2C12.AR cells (human AR)) is recorded as “marked increase”. Also, the “increase in luciferase expression over baseline” value in data set [8] (wild-type C2C12 cells, MMTV hormone response element reporter) is listed as “about 2 fold”.
